Data reported in US9302999B2, “Substituted triazoles as herbicides” (E. I. DU PONT DE NEMOURS AND COMPANY, priority 2012, dated 2016).
Read-outs that look alike come from different tables or passages of the source.

Columns and labels:
Assay type in all cases: in vivo
[1] = tested on: large crabgrass (Digitaria sanguinalis); experiment: Test C pre-/postemergence: large crabgrass
In short: (§1)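 Preemergence on seeds in loam/sand, postemergence on 2–18 cm (1–4-leaf) plants in peat-based medium; compounds in non-phytotoxic solvent with surfactant. After 13–15 days in greenhouse, visual rating versus controls, 0 (no effect) to 100 (complete control).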

[2] = tested on: soybean (Glycine max); experiment: Test C pre-/postemergence: soybean
In short: as §1

[3] = tested on: chickweed (common chickweed, Stellaria media); experiment: Test C postemergence: chickweed
In short: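 Pot-grown plants in peat/vermiculite medium sprayed postemergence at 2–18 cm height (1- to 4-leaf stage). Kept in greenhouse 13 to 15 days, then visually rated against untreated controls on a 0–100 scale (0 = no effect, 100 = complete control).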

[4] = tested on: foxtail, giant (giant foxtail, Setaria faberii); experiment: Test C pre-/postemergence: foxtail, giant
In short: as §1

[5] = tested on: morningglory (Ipomoea spp.); experiment: Test A pre-/postemergence: morningglory; details: Ipomoea, 240 h; for pest or weed control at 125 g/ha: 125 g ai/ha; for pest or weed control at 500 g/ha: 500 g ai/ha
In short: (§2)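 Plants in loam–sand blend were treated with test chemicals in non-phytotoxic solvent with surfactant, either as preemergence directed soil spray or postemergence at 2–10 cm, one- to two-leaf stage. After about ten days in greenhouse, injury was rated visually against untreated controls on a 0–100 scale (100 = complete control).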

[6] = tested on: kochia (Kochia scoparia); experiment: Test C pre-/postemergence: kochia
Excerpt: Seeds of plant species selected from blackgrass (Alopecurus myosuroides), bromegrass, downy (downy bromegrass, Bromus tectorum), foxtail, green (green foxtail, Setaria viridis), ryegrass, Italian (Italian ryegrass, Lolium multiflorum), winter wheat (Triticum aestivum), wild oat (Avena fatua), galium (catchweed bedstraw, Galium aparine), bermudagrass (Cynodon dactylon), surinam grass (Brachiaria decumbens), cocklebur (common cocklebur, Xanthium strumarium), corn (Zea mays), large crabgrass (Digitaria sanguinalis), woolly cupgrass (Eriochloa villosa), foxtail, giant (giant foxtail, Setaria faberii), goosegrass (Eleusine indica), johnsongrass (Sorghum halepense), kochia (Kochia scoparia), lambsquarters (Chenopodium album), morningglory (Ipomoea coccinea), nightshade (eastern black nightshade, Solanum ptycanthum), nutsedge, yellow (yellow nutsedge, Cyperus esculentus), pigweed (Amaranthus retroflexus), ragweed (common ragweed, Ambrosia elation), soybean (Glycine max), common (oilseed) sunflower (Helianthus annuus), Russian thistle (Salsola kali) and velvetleaf (Abutilon theophrasti) were planted into a blend of loam soil and sand and treated preemergence with test chemicals formulated in a non-phytotoxic solvent mixture which included a surfactant.
At the same time, plants selected from these crop and weed species and also barley (winter barley, Hordeum vulgare), canarygrass (Phalaris minor), chickweed (common chickweed, Stellaria media) windgrass (Apera spica-venti) and deadnettle (henbit deadnettle, Lamium amplexicaule) were planted in pots containing Redi-Earth® planting medium (Scotts Company, 14111 Scottslawn Road, Marysville, Ohio 43041) comprising spaghnum peat moss, vermiculite, wetting agent and starter nutrients and treated with postemergence applications of test chemicals formulated in the same manner. Plants ranged in height from 2 to 18 cm (1- to 4-leaf stage) for postemergence treatments.
Treated plants and controls were maintained in a greenhouse for 13 to 15 days, after which time all species were compared to controls and visually evaluated. Plant response ratings, summarized in Table C, are based on a scale of 0 to 100 where 0 is no effect and 100 is complete control. A dash (-) response means no test result.

[7] = tested on: velvetleaf (Abutilon theophrasti); experiment: Test A pre-/postemergence: velvetleaf; details: Abutilon theophrasti, 240 h; for pest or weed control at 125 g/ha: 125 g ai/ha; for pest or weed control at 500 g/ha: 500 g ai/ha
In short: as §2

[8] = tested on: barnyardgrass (Echinochloa crus-galli); experiment: Test A pre-/postemergence: barnyardgrass; details: Echinochloa crus-galli, 240 h; for pest or weed control at 125 g/ha: 125 g ai/ha; for pest or weed control at 500 g/ha: 500 g ai/ha
In short: as §2

[9] = tested on: corn (Zea mays); experiment: Test C pre-/postemergence: corn
In short: as §1

[10] = Postemergence, 31 g ai/ha, scale 0 to 100 (0 no effect, 100 complete control)
[11] = Postemergence, 62 g ai/ha, scale 0 to 100 (0 no effect, 100 complete control)
[12] = Postemergence, 125 g ai/ha, scale 0 to 100, 0 no effect, 100 complete control
[13] = Postemergence, 250 g ai/ha, scale 0 to 100
[14] = Preemergence, 31 g ai/ha, scale of 0 to 100, 0 is no effect, 100 is complete control
[15] = Preemergence, 62 g ai/ha, scale of 0 to 100, 0 is no effect, 100 is complete control
[16] = Preemergence, 125 g ai/ha, scale 0 to 100, 0 no effect, 100 complete control
[17] = Preemergence, 250 g ai/ha, scale 0 to 100, 0 no effect, 100 complete control
[18] = 31 g ai/ha, scale 0 to 100 (0 no effect, 100 complete control)
[19] = 62 g ai/ha, scale 0 to 100 (0 no effect, 100 complete control)
[20] = 125 g ai/ha, scale 0 to 100, 0 no effect, 100 complete control
[21] = post-emergence, Postemergence, 0 to 100 scale, 0 is no effect, 100 is complete control, read-out: Morningglory plant response rating
[22] = post-emergence, Postemergence, visual rating on 0 to 100 scale (0 no effect, 100 complete control), approximately ten days, read-out: Morningglory plant response rating
[23] = pre-emergence, Preemergence, 0 to 100 scale (0 no effect, 100 complete control), read-out: Plant response rating, Morningglory
[24] = pre-emergence, Preemergence, 0 to 100 scale, 0 is no effect, 100 is complete control, read-out: Plant response rating, Morningglory
[25] = post-emergence, Postemergence, 0 to 100 scale, 0 is no effect, 100 is complete control, read-out: Velvetleaf plant response rating
[26] = post-emergence, Postemergence, visual rating on 0 to 100 scale (0 no effect, 100 complete control), approximately ten days, read-out: Velvetleaf plant response rating
[27] = pre-emergence, Preemergence, 0 to 100 scale (0 no effect, 100 complete control), read-out: Plant response rating, Velvetleaf
[28] = pre-emergence, Preemergence, 0 to 100 scale, 0 is no effect, 100 is complete control, read-out: Plant response rating, Velvetleaf
[29] = post-emergence, Postemergence, 0 to 100 scale, 0 is no effect, 100 is complete control, read-out: Barnyardgrass plant response rating
[30] = post-emergence, Postemergence, visual rating on 0 to 100 scale (0 no effect, 100 complete control), approximately ten days, read-out: Barnyardgrass plant response rating
[31] = pre-emergence, Preemergence, 0 to 100 scale (0 no effect, 100 complete control), read-out: Plant response rating, Barnyardgrass
[32] = pre-emergence, Preemergence, 0 to 100 scale, 0 is no effect, 100 is complete control, read-out: Plant response rating, Barnyardgrass
[33] = Preemergence, 62 g ai/ha, scale 0 to 100, 0 no effect, 100 complete control
[34] = Postemergence, 16 g ai/ha, scale 0 to 100, 0 no effect, 100 complete control
[35] = Preemergence, 16 g ai/ha, scale 0 (no effect) to 100 (complete control)

FC(F)(F)COc1nn(-c2ccc(C(F)(F)F)cc2)nc1Cc1ccnc(C(F)(F)F)c1 [Compound 14, 4-[[5-(2,2,2-trifluoroethoxy)-2-[4-(trifluoromethyl)phenyl]-2H-1,2,3-triazol-4-yl]methyl]-2-(trifluoromethyl)pyridine]
Plant response rating, Crabgrass, Large [1, 10]: 10 | Plant response rating, Crabgrass, Large [1, 11]: 45 | Plant response rating, Crabgrass, Large [1, 12]: 45 | Plant response rating, Crabgrass, Large [1, 13]: 60 | Plant response rating, Crabgrass, Large [1, 14]: 95 | Plant response rating, Crabgrass, Large [1, 15]: 100 | Plant response rating, Crabgrass, Large [1, 16]: 100 | Plant response rating, Crabgrass, Large [1, 17]: 100 | Plant response rating, Soybean [2, 10]: 25 | Plant response rating, Soybean [2, 11]: 25 | Plant response rating, Soybean [2, 12]: 30 | Plant response rating, Soybean [2, 13]: 35 | Plant response rating, Soybean [2, 14]: 0 | Plant response rating, Soybean [2, 15]: 0 | Plant response rating, Soybean [2, 16]: 0 | Plant response rating, Soybean [2, 17]: 0 | Plant response rating, Chickweed [3, 18]: 60 | Plant response rating, Chickweed [3, 19]: 75 | Plant response rating, Chickweed [3, 20]: 75 | Plant response rating, Chickweed ([3]; 250 g ai/ha, scale 0 to 100): 80 | Plant response rating, Foxtail, Giant [4, 10]: 10 | Plant response rating, Foxtail, Giant [4, 11]: 15 | Plant response rating, Foxtail, Giant [4, 12]: 30 | Plant response rating, Foxtail, Giant [4, 13]: 35 | Plant response rating, Foxtail, Giant [4, 14]: 95 | Plant response rating, Foxtail, Giant [4, 15]: 98 | Plant response rating, Foxtail, Giant [4, 16]: 100 | Plant response rating, Foxtail, Giant [4, 17]: 100 | pest or weed control at 125 g/ha [5, 21]: 80% | pest or weed control at 500 g/ha [5, 22]: 100% | pest or weed control at 125 g/ha [5, 23]: 60% | pest or weed control at 500 g/ha [5, 24]: 80% | Plant response rating, Kochia [6, 10]: 90 | Plant response rating, Kochia [6, 11]: 95 | Plant response rating, Kochia [6, 12]: 95 | Plant response rating, Kochia [6, 13]: 95 | Plant response rating, Kochia [6, 14]: 0 | Plant response rating, Kochia [6, 15]: 0 | Plant response rating, Kochia [6, 16]: 75 | Plant response rating, Kochia [6, 17]: 85 | pest or weed control at 125 g/ha [7, 25]: 100% | pest or weed control at 500 g/ha [7, 26]: 100% | pest or weed control at 125 g/ha [7, 27]: 70% | pest or weed control at 500 g/ha [7, 28]: 90% | pest or weed control at 125 g/ha [8, 29]: 80% | pest or weed control at 500 g/ha [8, 30]: 90% | pest or weed control at 125 g/ha [8, 31]: 70% | pest or weed control at 500 g/ha [8, 32]: 90% | Plant response rating, Corn [9, 10]: 5 | Plant response rating, Corn [9, 11]: 10 | Plant response rating, Corn [9, 12]: 15 | Plant response rating, Corn [9, 13]: 15 | Plant response rating, Corn [9, 14]: 0 | Plant response rating, Corn [9, 33]: 0 | Plant response rating, Corn [9, 16]: 5 | Plant response rating, Corn [9, 17]: 10

COc1nn(-c2ccc(C(F)(F)F)cc2)nc1Cc1ccnc(C(F)(F)F)c1 [Compound 15, 4-[[5-methoxy-2-[4-(trifluoromethyl)phenyl]-2H-1,2,3-triazol-4-yl]methyl]-2-(trifluoromethyl)pyridine]
Plant response rating, Crabgrass, Large [1, 34]: 5 | Plant response rating, Crabgrass, Large [1, 10]: 15 | Plant response rating, Crabgrass, Large [1, 11]: 45 | Plant response rating, Crabgrass, Large [1, 12]: 60 | Plant response rating, Crabgrass, Large [1, 35]: 98 | Plant response rating, Crabgrass, Large [1, 14]: 100 | Plant response rating, Crabgrass, Large [1, 15]: 100 | Plant response rating, Crabgrass, Large [1, 16]: 100 | Plant response rating, Soybean [2, 34]: 10 | Plant response rating, Soybean [2, 10]: 10 | Plant response rating, Soybean [2, 11]: 35 | Plant response rating, Soybean [2, 12]: 45 | Plant response rating, Soybean [2, 35]: 0 | Plant response rating, Soybean [2, 14]: 0 | Plant response rating, Soybean [2, 15]: 0 | Plant response rating, Soybean [2, 16]: 25 | Plant response rating, Chickweed ([3]; 16 g ai/ha, scale 0 to 100, 0 no effect, 100 complete control): 55 | Plant response rating, Chickweed [3, 18]: 55 | Plant response rating, Chickweed [3, 19]: 70 | Plant response rating, Chickweed [3, 20]: 75 | Plant response rating, Foxtail, Giant [4, 34]: 5 | Plant response rating, Foxtail, Giant [4, 10]: 10 | Plant response rating, Foxtail, Giant [4, 11]: 10 | Plant response rating, Foxtail, Giant [4, 12]: 75 | Plant response rating, Foxtail, Giant [4, 35]: 95 | Plant response rating, Foxtail, Giant [4, 14]: 95 | Plant response rating, Foxtail, Giant [4, 15]: 100 | Plant response rating, Foxtail, Giant [4, 16]: 100 | pest or weed control at 125 g/ha [5, 21]: 100% | pest or weed control at 500 g/ha [5, 22]: 100% | pest or weed control at 125 g/ha [5, 23]: 60% | pest or weed control at 500 g/ha [5, 24]: 80% | Plant response rating, Kochia [6, 34]: 90 | Plant response rating, Kochia [6, 10]: 95 | Plant response rating, Kochia [6, 11]: 95 | Plant response rating, Kochia [6, 12]: 95 | Plant response rating, Kochia [6, 35]: 0 | Plant response rating, Kochia [6, 14]: 70 | Plant response rating, Kochia [6, 15]: 70 | Plant response rating, Kochia [6, 16]: 85 | pest or weed control at 125 g/ha [7, 25]: 100% | pest or weed control at 500 g/ha [7, 26]: 100% | pest or weed control at 125 g/ha [7, 27]: 70% | pest or weed control at 500 g/ha [7, 28]: 80% | pest or weed control at 125 g/ha [8, 29]: 90% | pest or weed control at 500 g/ha [8, 30]: 90% | pest or weed control at 125 g/ha [8, 31]: 100% | pest or weed control at 500 g/ha [8, 32]: 100% | Plant response rating, Corn [9, 34]: 0 | Plant response rating, Corn [9, 10]: 5 | Plant response rating, Corn [9, 11]: 15 | Plant response rating, Corn [9, 12]: 35 | Plant response rating, Corn [9, 35]: 0 | Plant response rating, Corn [9, 14]: 0 | Plant response rating, Corn [9, 33]: 0 | Plant response rating, Corn [9, 16]: 10
